Measurements as given in publication PMC4205912, “Sea foam as a source of fungal inoculum for the isolation of biologically active natural products” (Mycology, 2014).
Values after ≈ are worked out from the molar mass of the structure shown.

Experiments:
[1] = test system: Pseudomonas aeruginosa ATCC 14210; experiment: microbroth antibiotic susceptibility testing, P. aeruginosa; format: cell-based; settings: triplicate, averaged, 22 h at 37°C
Description: (§1) All microbroth antibiotic susceptibility testing was carried out in triplicate in 96-well plates in accordance with Clinical Laboratory Standards Institute testing standards (NCCLS, [2003]) using the following pathogens: MRSA ATCC 33591 (MRSA), S. warneri ATCC 17917, VRE EF379 (VRE), Pseudomonas aeruginosa ATCC 14210, Proteus vulgaris ATCC 12454, and Candida albicans ATCC 14035. Extract fractions were assayed at 250 µg/mL while pure compounds were serially diluted to generate a range of 12 concentrations (128–0.0625 µg/mL) in a final well volume concentration of 2% DMSO(aq). […] The optical density of the plate was recorded using a Thermo Scientific Varioskan Flash plate reader at 600 nm at time zero and then again after incubation of the plates for 22 h at 37°C. After subtracting the time zero OD600 from the final reading, the percentages of microorganism survival relative to vehicle control wells were calculated.

[2] = test system: Candida albicans ATCC 14035; experiment: microbroth susceptibility testing, C. albicans; format: cell-based; settings: triplicate, averaged, 22 h at 37°C
Description: as §1

[3] = test system: VRE EF379; experiment: microbroth antibiotic susceptibility testing, VRE; format: cell-based, vancomycin-resistant Enterococcus faecium; settings: triplicate, averaged, 22 h at 37°C
Description: as §1

[4] = test system: stromelysin; parameters: method as in Harris et al. [1993]; settings: ref Harris et al. [1993]; read-out: IC50, inhibition of cleavage of β-casein by stromelysin; cited from earlier work
[5] = test system: Proteus vulgaris ATCC 12454; experiment: microbroth antibiotic susceptibility testing, P. vulgaris; format: cell-based; settings: triplicate, averaged, 22 h at 37°C
Description: as §1, with “14035.” for “14035. Extract fractions were assayed at 250 µg/mL while pure compounds were serially diluted to generate a range of 12 concentrations (128–0.0625 µg/mL) in a final well volume concentration of 2% DMSO(aq).”

[6] = test system: MRSA ATCC 33591; experiment: microbroth antibiotic susceptibility testing, MRSA; format: cell-based, methicillin-resistant Staphylococcus aureus; settings: triplicate, averaged, 22 h at 37°C
Description: as §1

[7] = test system: S. warneri ATCC 17917; experiment: microbroth antibiotic susceptibility testing, S. warneri; format: cell-based; settings: triplicate, averaged, 22 h at 37°C
Description: as §1

[8] = test system: adult human epidermal keratinocytes (HEKa); experiment: cytotoxicity assay (Alamar blue), keratinocytes; format: cell-based; settings: HeKa cells, 24 h
Description: (§2) Human foreskin BJ fibroblast cells (ATCC CRL-2522), adult human epidermal keratinocytes (HEKa), and human breast adenocarcinoma cells (ATCC HTB-26) were grown to 80% confluency (growth conditions are provided in Supplementary Materials and Methods), the cells were counted, diluted, and plated into treated 96-well cell culture plates. The BJ fibroblast and HEKa cells were plated at a cell density of 10,000 cells per well and the HTB-26 cells were plated at cell density of 5000 cells per well in 90 µL of respective growth medium (without the addition of antibiotics) and incubated for 24 h to allow cells to adhere to the plates before treatment. Pure compounds were tested in triplicate in serial dilutions of eight concentrations ranging from 128 µg/mL to 1 µg/mL per well (final well volume of 100 µL, 1% DMSO per well). Each of the cell lines were incubated at 37°C in a humidified atmosphere of 5% CO2; the BJ fibroblast and HEKa cells for 24 h and the HTB-26 cells for 72 h. Each plate contained four uninoculated positive controls, four untreated negative controls, and one column containing a concentration range of zinc pyrithione or doxorubicin. Alamar blue was added, 24 h after the treatment, and fluorescence was monitored using a Thermo Scientific Varioskan Flash plate reader at 560/12 excitation, 590 nm emission both at time zero and 4 h after Alamar blue addition. The inferred percentage of cell viability relative to vehicle control wells were calculated after subtracting the time zero emission 590 nm measurement from the final reading and the IC50 was determined.

[9] = test system: erythropoietin gene expression; parameters: method as in Cai et al. [1998]; settings: at a concentration of 1–1.6 µM; ref Cai et al. [1998]; cited from earlier work
[10] = test system: Human foreskin BJ fibroblast cells (ATCC CRL-2522); experiment: cytotoxicity assay (Alamar blue), fibroblasts; format: cell-based; settings: Homo sapiens; BJ cells, 24 h; read-out: Fibroblast IC50
Description: as §2

[11] = test system: adult human epidermal keratinocytes (HEKa); experiment: cytotoxicity assay (Alamar blue), keratinocytes; format: cell-based; settings: HeKa cells, 24 h; remark: listed apart in the source
[12] = Pseudomonas aeruginosa, ATCC14210

Question: Which results are given for `Cc1cc(=O)c(O)cc2c1C[C@H]1CC(C)(C)/C=C/C[C@@]3(C)Oc4cc(O)c(=O)cc(C)c4C[C@@H]3C[C@H](O)[C@]1(C)O2` [Pycnidione, pycnidione]?
Answer: IC50 [1, 12]: > 128 µg/mL; MIC [1, 12]: > 128 µg/mL; IC50 ([2]; Candida albicans, ATCC14035): 5 µg/mL (≈ 9.11 µM); MIC ([2]; Candida albicans, ATCC14035): 8 µg/mL (≈ 14.6 µM); IC50 ([3]; Enterococcus, VRE, read-out: VRE IC50): 46 µg/mL (≈ 83.8 µM); MIC ([3]; Enterococcus, VRE, read-out: VRE MIC): 64 µg/mL (≈ 117 µM); IC50 [4]: 31 µM; IC50 ([5]; Proteus vulgaris, ATCC12454): 30 µg/mL (≈ 54.7 µM); MIC ([5]; Proteus vulgaris, ATCC12454): 64 µg/mL (≈ 117 µM); IC50 ([6]; Staphylococcus aureus, read-out: MRSA IC50): 12 µg/mL (≈ 21.9 µM); MIC ([6]; Staphylococcus aureus, read-out: MRSA MIC): 16 µg/mL (≈ 29.2 µM); IC50 ([7]; Staphylococcus warneri, ATCC17917, read-out: S. warneri IC50): 12 µg/mL (≈ 21.9 µM); MIC ([7]; Staphylococcus warneri, ATCC17917, read-out: S. warneri MIC): 64 µg/mL (≈ 117 µM); IC50 ([8]; Homo sapiens, read-out: Keratinocyte IC50): 15 µg/mL (≈ 27.3 µM); induction of erythropoietin gene expression [9]: five-fold; IC50 [10]: 11 µg/mL (≈ 20 µM)

Question: For coniothyrione, which “P. aeruginosa IC50” value [1] is on record?
Answer: The value was over 64 µg/mL.

Question: What about the “P. aeruginosa MIC” value [1] of the same compound?
Answer: The value was over 64 µg/mL.

Question: What about the “C. albicans IC50” value [2] of the same compound?
Answer: The value was over 64 µg/mL.

Question: What about the “C. albicans MIC” value [2] of the same compound?
Answer: Its value is over 64 µg/mL.

Question: What about the “VRE IC50” value [3] of the same compound?
Answer: The value was 4 µg/mL.

Question: What about the “VRE MIC” value [3] of the same compound?
Answer: The value was 16 µg/mL.

Question: And the “P. vulgaris IC50” value [5]?
Answer: The value was 30 µg/mL.

Question: What about the “P. vulgaris MIC” value [5] of the same compound?
Answer: The value was over 64 µg/mL.

Question: What about the “Keratinocyte MIC” value [11] of the same compound?
Answer: Its value is 64 µg/mL.

Question: And the “MRSA IC50” value [6]?
Answer: Its value is 8 µg/mL.

Question: What about the “MRSA MIC” value [6] of the same compound?
Answer: Its value is 16 µg/mL.

Question: What about the “S. warneri IC50” value [7] of the same compound?
Answer: The value was 12 µg/mL.

Question: And the “S. warneri MIC” value [7]?
Answer: Its value is 16 µg/mL.

Question: What about the “Keratinocyte IC50” value [8] of the same compound?
Answer: The value was 5 µg/mL.
